Laboratory results reported in US20250312352A1, “GLP-1R MODULATING COMPOUNDS” (Gilead Sciences, Inc., priority 2021, published 2025).

Target: T1, GLP-1R (Homo sapiens, UniProt P43220)
T1 construct: host or cells: CHO cells
Assay: GLP-1R activation cAMP assay (Assay 1 or Assay 2)
Type: cell-based
Conditions: cAMP increase in CHO cells stably expressing GLP-1R; compounds run on one of the two cAMP assays
Summary of the method: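 CHO cells stably expressing human GLP-1R were incubated 1 h in HBSS/20 mM HEPES/0.1% BSA, then exposed to 10-point agonist dilutions for 30 min at 37 °C. cAMP increase was measured with an HTRF Gs dynamic kit; EC50 from sigmoidal fit of response versus log concentration.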

T1 sequence (P43220 24-463): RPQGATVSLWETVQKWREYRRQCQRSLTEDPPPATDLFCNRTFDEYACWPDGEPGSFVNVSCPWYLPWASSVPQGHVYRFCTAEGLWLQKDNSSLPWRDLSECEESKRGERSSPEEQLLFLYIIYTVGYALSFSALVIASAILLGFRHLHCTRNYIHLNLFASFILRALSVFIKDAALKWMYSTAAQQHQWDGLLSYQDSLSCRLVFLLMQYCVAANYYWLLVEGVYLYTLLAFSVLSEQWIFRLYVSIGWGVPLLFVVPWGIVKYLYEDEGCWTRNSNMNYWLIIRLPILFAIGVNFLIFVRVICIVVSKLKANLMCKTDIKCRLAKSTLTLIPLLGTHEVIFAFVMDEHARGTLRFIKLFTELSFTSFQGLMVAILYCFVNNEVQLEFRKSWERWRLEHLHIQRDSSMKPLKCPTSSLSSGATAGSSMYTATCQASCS

SMILES | EC50
Cn1nc(COc2cccc(-c3cc(F)c(Cc4nc5ccc(C(=O)O)cc5n4C[C@@H]4CCO4)cc3F)n2)c2c1CCC2 [Example 73, (S)-2-(2,5-difluoro-4-(6-((1-methyl-1,4,5,6-tetrahydrocyclopenta[c]pyrazol-3-yl)methoxy)pyridin-2-yl)benzyl)-1-(oxetan-2-ylmethyl)-1H-benzo[d]imidazole-6-carboxylic acid] | 1.1 nM
Cc1nc(COc2cccc(-c3cc(F)c(Cc4nc5ccc(C(=O)O)cc5n4C[C@@H]4CCO4)cc3F)n2)no1 [Example 17, (S)-2-(2,5-difluoro-4-(6-((5-methyl-1,2,4-oxadiazol-3-yl)methoxy)pyridin-2-yl)benzyl)-1-(oxetan-2-ylmethyl)-1H-benzo[d]imidazole-6-carboxylic acid] | 7 nM
Cc1ncc(COc2cccc(-c3cc(F)c(Cc4nc5ccc(C(=O)O)cc5n4C[C@@H]4CCO4)cc3F)n2)n1C [Example 179, (S)-2-(4-(6-((1,2-dimethyl-1H-imidazol-5-yl)methoxy)pyridin-2-yl)-2,5-difluorobenzyl)-1-(oxetan-2-ylmethyl)-1H-benzo[d]imidazole-6-carboxylic acid] | 4.59 nM
COc1nnc(COc2cccc(-c3ccc(Cc4nc5ccc(C(=O)O)cc5n4[C@@H]4COCC4(C)C)cc3F)n2)s1 [Example 400, (S)-1-(4,4-dimethyltetrahydrofuran-3-yl)-2-(3-fluoro-4-(6-((5-methoxy-1,3,4-thiadiazol-2-yl)methoxy)pyridin-2-yl)benzyl)-1H-benzo[d]imidazole-6-carboxylic acid] | 0.412 nM
O=C(O)c1cc(F)c2nc(Cc3cc(F)c(-c4cccc(OCc5ccc(C#Cc6cnc(N7CC8CCC(C7)N8C7COC7)nc6)cc5F)n4)cc3F)n(C[C@@H]3CCO3)c2c1 [Example 152, 2-(2,5-difluoro-4-(6-((2-fluoro-4-((2-(8-(oxetan-3-yl)-3,8-diazabicyclo[3.2.1]octan-3-yl)pyrimidin-5-yl)ethynyl)benzyl)oxy)pyridin-2-yl)benzyl)-4-fluoro-1-(((S)-oxetan-2-yl)methyl)-1H-benzo[d]imidazole-6-carboxylic acid] | 0.68 nM
O=C(O)c1ccc2nc(Cc3cc(F)c(-c4cccc(OCc5ccn(C6COC6)n5)n4)cc3F)n(C[C@@H]3CCO3)c2c1 [Example 10, (S)-2-(2,5-difluoro-4-(6-((1-(oxetan-3-yl)-1H-pyrazol-3-yl)methoxy)pyridin-2-yl)benzyl)-1-(oxetan-2-ylmethyl)-1H-benzo[d]imidazole-6-carboxylic acid] | 7.55 nM
Cn1c(COc2cccc(-c3cc(F)c(Cc4nc5ccc(C(=O)O)cc5n4C[C@@H]4CCO4)cc3F)n2)nc2ccccc21 [Example 48, (S)-2-(2,5-difluoro-4-(6-((1-methyl-1H-benzo[d]imidazol-2-yl)methoxy)pyridin-2-yl)benzyl)-1-(oxetan-2-ylmethyl)-1H-benzo[d]imidazole-6-carboxylic acid] | 2.33 nM
Cn1cc(C#Cc2ccc(COc3cccc(-c4cc(F)c(Cc5nc6ccc(C(=O)O)cc6n5C[C@@H]5CCO5)cc4F)n3)cn2)cn1 [Example 147, (S)-2-(2,5-difluoro-4-(6-((6-((1-methyl-1H-pyrazol-4-yl)ethynyl)pyridin-3-yl)methoxy)pyridin-2-yl)benzyl)-1-(oxetan-2-ylmethyl)-1H-benzo[d]imidazole-6-carboxylic acid] | 0.6 nM
Cn1cc(C#Cc2cnc(COc3cccc(-c4cc(F)c(Cc5nc6ccc(C(=O)O)cc6n5C[C@@H]5CCO5)cc4F)n3)c(Cl)c2)cn1 [Example 302, (S)-2-(4-(6-((3-chloro-5-((1-methyl-1H-pyrazol-4-yl)ethynyl)pyridin-2-yl)methoxy)pyridin-2-yl)-2,5-difluorobenzyl)-1-(oxetan-2-ylmethyl)-1H-benzo[d]imidazole-6-carboxylic acid] | 0.567 nM
COc1nnc(COc2nc(-c3cc(F)c(Cc4nc5ccc(C(=O)O)cc5n4CC4(CF)CC4)c(F)c3F)ccc2F)s1 [Example 368, 1-((1-(fluoromethyl)cyclopropyl)methyl)-2-(2,3,6-trifluoro-4-(5-fluoro-6-((5-methoxy-1,3,4-thiadiazol-2-yl)methoxy)pyridin-2-yl)benzyl)-1H-benzo[d]imidazole-6-carboxylic acid] | 0.712 nM

The next compounds have a lower EC50 than those just listed; values first:

EC50 | SMILES
0.367 nM | CCOc1nnc(COc2cccc(-c3cc(F)c(Cc4nc5ccc(C(=O)O)cc5n4CC4(CF)CC4)cc3F)n2)s1 [Example 266, 2-(4-(6-((5-ethoxy-1,3,4-thiadiazol-2-yl)methoxy)pyridin-2-yl)-2,5-difluorobenzyl)-1-((1-(fluoromethyl)cyclopropyl)methyl)-1H-benzo[d]imidazole-6-carboxylic acid]
0.33 nM | Cn1ncc2cc(COc3cccc(-c4cc(F)c(Cc5nc6ccc(C(=O)O)cc6n5C[C@@H]5CCO5)cc4F)n3)sc21 [Example 230, 2-[[2,5-difluoro-4-[6-[(1-methylthieno[2,3-c]pyrazol-5-yl)methoxy]-2-pyridyl]phenyl]methyl]-3-[[(2S)-oxetan-2-yl]methyl]benzimidazole-5-carboxylic acid]
0.3 nM | N#CC1(NC(=O)c2cc(Cl)c(COc3cccc(-c4cc(F)c(Cc5nc6ccc(C(=O)O)cc6n5C[C@@H]5CCO5)cc4F)n3)cn2)CCC1 [Example 189, (S)-2-(4-(6-((4-chloro-6-((1-cyanocyclobutyl)carbamoyl)pyridin-3-yl)methoxy)pyridin-2-yl)-2,5-difluorobenzyl)-1-(oxetan-2-ylmethyl)-1H-benzo[d]imidazole-6-carboxylic acid]
0.24 nM | O=C(O)c1ccc2nc(Cc3cc(F)c(-c4cccc(OCc5ccc(C#Cc6cncs6)cc5F)n4)cc3F)n(C[C@@H]3CCO3)c2c1 [Example 137, (S)-2-(2,5-difluoro-4-(6-((2-fluoro-4-(thiazol-5-ylethynyl)benzyl)oxy)pyridin-2-yl)benzyl)-1-(oxetan-2-ylmethyl)-1H-benzo[d]imidazole-6-carboxylic acid]
0.24 nM | C[C@H](C#N)NC(=O)c1cc(Cl)c(COc2cccc(-c3cc(F)c(Cc4nc5ccc(C(=O)O)cc5n4C[C@@H]4CCO4)cc3F)n2)cn1 [Example 200, 2-(4-(6-((4-chloro-6-(((R)-1-cyanoethyl)carbamoyl)pyridin-3-yl)methoxy)pyridin-2-yl)-2,5-difluorobenzyl)-1-(((S)-oxetan-2-yl)methyl)-1H-benzo[d]imidazole-6-carboxylic acid]
0.191 nM | COc1nnc(COc2nc(-c3cc(F)c(Cc4nc5ccc(C(=O)O)cc5n4[C@@H]4COCC4(C)C)c(F)c3F)ccc2F)s1 [Example 270, (S)-1-(4,4-dimethyltetrahydrofuran-3-yl)-2-(2,3,6-trifluoro-4-(5-fluoro-6-((5-methoxy-1,3,4-thiadiazol-2-yl)methoxy)pyridin-2-yl)benzyl)-1H-benzo[d]imidazole-6-carboxylic acid]
0.183 nM | O=C(O)c1ccc2nc(Cc3cc(F)c(-c4cccc(OCc5ncc(C#Cc6ccc(F)cc6)cc5F)n4)cc3F)n(C[C@@H]3CCO3)c2c1 [Example 284, (S)-2-(2,5-difluoro-4-(6-((3-fluoro-5-((4-fluorophenyl)ethynyl)pyridin-2-yl)methoxy)pyridin-2-yl)benzyl)-1-(oxetan-2-ylmethyl)-1H-benzo[d]imidazole-6-carboxylic acid]
0.182 nM | COc1nnc(COc2cccc(-c3cc(F)c(Cc4nc5c(F)cc(C(=O)O)cc5n4C[C@@H]4CCO4)cc3F)n2)s1 [Example 351, (S)-2-(2,5-difluoro-4-(6-((5-methoxy-1,3,4-thiadiazol-2-yl)methoxy)pyridin-2-yl)benzyl)-4-fluoro-1-(oxetan-2-ylmethyl)-1H-benzo[d]imidazole-6-carboxylic acid]
0.18 nM | N#CC1(Cn2cc(-c3ccc(COc4cccc(-c5cc(F)c(Cc6nc7ccc(C(=O)O)cc7n6C[C@@H]6CCO6)cc5F)n4)c(F)c3)cn2)CC1 [Example 159, (S)-2-(4-(6-((4-(1-((1-cyanocyclopropyl)methyl)-1H-pyrazol-4-yl)-2-fluorobenzyl)oxy)pyridin-2-yl)-2,5-difluorobenzyl)-1-(oxetan-2-ylmethyl)-1H-benzo[d]imidazole-6-carboxylic acid]
0.174 nM | COc1nc(C#Cc2cnn(C)c2)ccc1COc1cccc(-c2cc(F)c(Cc3nc4ccc(C(=O)O)cc4n3C[C@@H]3CCO3)cc2F)n1 [Example 360, (S)-2-(2,5-difluoro-4-(6-((2-methoxy-6-((1-methyl-1H-pyrazol-4-yl)ethynyl)pyridin-3-yl)methoxy)pyridin-2-yl)benzyl)-1-(oxetan-2-ylmethyl)-1H-benzo[d]imidazole-6-carboxylic acid]
0.144 nM | COc1nnc(COc2cccc(-c3cc(F)c(Cc4nc5ccc(C(=O)O)cc5n4[C@@H]4COCC4(C)C)c(F)c3F)n2)s1 [Example 273, (S)-1-(4,4-dimethyltetrahydrofuran-3-yl)-2-(2,3,6-trifluoro-4-(6-((5-methoxy-1,3,4-thiadiazol-2-yl)methoxy)pyridin-2-yl)benzyl)-1H-benzo[d]imidazole-6-carboxylic acid]
0.121 nM | CNC(=O)c1cc(Cl)c(COc2cccc(-c3cc(Cl)c(Cc4nc5c(F)cc(C(=O)O)cc5n4CCOC)cc3F)n2)cn1 [Example 386, 2-(2-chloro-4-(6-((4-chloro-6-(methylcarbamoyl)pyridin-3-yl)methoxy)pyridin-2-yl)-5-fluorobenzyl)-4-fluoro-1-(2-methoxyethyl)-1H-benzo[d]imidazole-6-carboxylic acid]
0.036 nM | Cn1cc(C#Cc2cnc(COc3nc(-c4cc(F)c(Cc5nc6c(F)cc(C(=O)O)cc6n5C[C@@H]5CCO5)cc4F)ccc3F)c(F)c2)cn1 [Example 296, (S)-2-(2,5-difluoro-4-(5-fluoro-6-((3-fluoro-5-((1-methyl-1H-pyrazol-4-yl)ethynyl)pyridin-2-yl)methoxy)pyridin-2-yl)benzyl)-4-fluoro-1-(oxetan-2-ylmethyl)-1H-benzo[d]imidazole-6-carboxylic acid]
